Results from patent US12157713B2, “Conjugated oligoelectrolytes as antimicrobial agents” (Nanyang Technological University, priority 2018, dated 2024).

System: organism classes (Gram-negative, Gram-positive and fungi)
Assay: Single-dose screening summary by organism class
Type: cell-based
Conditions: 32 μg/mL; 0 = no activity
Procedure: (§1) Percentage growth inhibition of an individual sample was calculated based on growth in a reference well determined from negative controls (media only) and positive controls (bacterial/fungal media without inhibitors). Negative inhibition values indicate that the growth rate (or OD600) is higher compared to the reference growth (bacteria/fungi only, set to 0% inhibition). The growth rates for all bacteria and fungi may vary at −/+10%, which were within the reported normal distribution of bacterial/fungal growth. Any significant variations (or outliers/hits) were identified by the modified Z-Score, and the active compounds were selected by a combination of inhibition values and Z-Score.
Z-Score analysis was carried out to investigate outliers or hits among the samples. The Z-Score was calculated based on the sample population using a modified Z-Score method which accounts for possible skewed sample population. The modified method uses median and MAD ([…]) instead of average and standard deviation, and a scaling factor (Iglewicz, B. & Hoaglin, D. C. Volume 16: How to Detect and Handle Outliers. The ASQC Basic Reference in Quality Control: Statistical Techniques, 1993). The equation to calculate the modified Z-Score value is as follow: […]
(§2) A M(i) value of >|2.5| (absolute) would classify the sample as outliers or hits. Active samples were denoted as compounds with inhibition values equal to or above 80% and absolute Z-Score above |2.5| for either replicate (n=2 on different plates). Partial active samples were denoted as compounds with inhibition values from 50% to <80%, or absolute Z-Score below |2.5|.

Q: With `C[N+](C)(C)CCCCCCOc1ccc(/C=C/c2ccc(/C=C/c3ccc(OCCCCCC[N+](C)(C)C)cc3)cc2)cc1` [COE-T6] as the compound, how does the “Activity: number of organism classes the compound has been found active against” value read?
A: 2

Q: Which “Activity: number of organism classes the compound has been found active against” value does the source give for `C[N+](C)(C)CC[N+](C)(C)CCCCCCCCOc1ccc(/C=C/c2ccc(OCCCCCCCC[N+](C)(C)CC[N+](C)(C)C)cc2)cc1` [COE-D82] here?
A: 3

System: Candida albicans ATCC 90028
Assay: Single-dose growth inhibition, Ca
Type: cell-based
Conditions: ATCC90028, 32 μg/mL single dose, n=2, read-out: Growth inhibition Ca
Procedure: (§3) Growth inhibition of C. albicans was determined by measuring the absorbance at 530 nm (OD530), while the growth inhibition of C. neoformans was determined by measuring the difference in absorbance between 600 and 570 nm (OD600-570), after the addition of resazurin (0.001 wt. % final concentration) and incubation at 35° C. for additional 2 hrs. The absorbance was measured using a Biotek Synergy HTX plate reader. The relative growth inhibition was calculated for each well, relative to that determined from a negative control (media only) and positive control (bacteria without inhibitors) on the same plate as references. A single dose of 32 μg/mL of COE (final concentration) was used for each test.
as §1, §2

Q: With `C[N+](C)(C)CCCCCCOc1ccc(/C=C/c2ccc(/C=C/c3ccc(OCCCCCC[N+](C)(C)C)cc3)cc2)cc1` [COE-T6] as the compound, how does the inhibition at 32 µg/mL read?
A: > 80%

Q: For `C[N+](C)(C)CC[N+](C)(C)CCCCCCCCOc1ccc(/C=C/c2ccc(OCCCCCCCC[N+](C)(C)CC[N+](C)(C)C)cc2)cc1` [COE-D82], which inhibition at 32 µg/mL is on record?
A: > 80%

System: not listed separately
Assay: Solubility in PBS / aqueous solubility
Type: physicochemical
Conditions: aqueous buffer; in PBS; read-out: Solubility in PBS

Q: With `C[N+](C)(C)CCCCCCOc1ccc(/C=C/c2ccc(/C=C/c3ccc(OCCCCCC[N+](C)(C)C)cc3)cc2)cc1` [COE-T6] as the compound, how does the solubility read?
A: 76 µg/mL

System: E. coli K12
Assay: Cellular uptake by E. coli K12 (absorption spectroscopy)
Type: cell-based, Escherichia coli
Conditions: 10 μg/mL COE in PBS, OD=0.5, 2 hrs, room temperature
Procedure: The relative membrane affinity of COE-D4, COE-D6 and COE-D8 was estimated from the quantity taken up by cells using absorption spectroscopy. After cultures of E. coli K12 were grown in MHB at 37° C., the cells were harvested by centrifugation (6000 rpm, 5 min) and washed twice with PBS solution (pH=7.2). The cells were then resuspended in PBS and with the density adjusted to OD=1.0. Thereafter, 5 mL of this cell suspension was mixed with an equal volume of 20 μg/mL of COE in PBS to achieve a final concentration of 10 μg/mL (in triplicates). After exposure to COEs for 2 hrs at room temperature and with shaking (200 rpm), the cells were removed by centrifugation and the supernatant was collected for absorbance scans to quantify the remaining COE in the supernatant. The uptake quantity was estimated by comparing the absorbance of the supernatant to the corresponding control COE solution (i.e. 10 μg/mL in PBS). The procedure for uptake measurements at the lower temperature is similar to the one described above, but with the exposure to COEs and centrifugation occurring at 4° C. instead of room temperature
The effect of molecular structures of the COEs on relative membrane affinity, estimated from the amount taken up by E. coli K12, was measured by absorption spectroscopy (FIG. 8a-c). These experiments utilised cell suspensions (OD=0.5) incubated for 2 hrs with 10 μg mL^−1 of various COE. Cells were removed by centrifugation, and the amount of uncomplexed COE was determined from the optical absorption spectra. The longest molecule, COE-D8, achieved the highest uptake in bacteria (72%). In contrast, only 3% of COE-D4 was absorbed while the uptake for COE-D6 was 16% (Table 1a).
Parallel experiments were carried out at 4° C. […] As a result of the reduced fluidity of cellular membrane at lower temperature, the uptake decreased to around 1% for COE-D4, 5% for COE-D6, and 34% for COE-D8.

Q: With `C[N+](C)(C)CCCCCCOc1ccc(/C=C/c2ccc(/C=C/c3ccc(OCCCCCC[N+](C)(C)C)cc3)cc2)cc1` [COE-T6] as the compound, how does the “Uptake by E. coli K12” value read?
A: 89%

System: Acinetobacter baumannii ATCC 19606
Assay: Single-dose growth inhibition, Ab
Type: cell-based
Conditions: ATCC19606, 32 μg/mL single dose, n=2, read-out: Growth inhibition Ab
Procedure: (§4) Inhibition of bacterial growth was determined by measuring the absorbance at 600 nm (OD600), using a Tecan M1000 Pro monochromator plate reader. Growth inhibition was calculated for each well, relative to the reference growths determined from a negative control (media only) and positive control (bacteria without inhibitors) incubated in the same plate. A single dose of 32 μg/mL of COE (final concentration) was used for each test.
as §1, §2

Q: For `C[N+](C)(C)CCCCCCOc1ccc(/C=C/c2ccc(/C=C/c3ccc(OCCCCCC[N+](C)(C)C)cc3)cc2)cc1` [COE-T6], which inhibition at 32 µg/mL is on record?
A: < 50%

Q: With `C[N+](C)(C)CC[N+](C)(C)CCCCCCCCOc1ccc(/C=C/c2ccc(OCCCCCCCC[N+](C)(C)CC[N+](C)(C)C)cc2)cc1` [COE-D82] as the compound, how does the inhibition at 32 µg/mL read?
A: 50 to 80%

System: Escherichia coli FDA control ATCC 25922
Assay: Single-dose growth inhibition, Ec
Type: cell-based
Conditions: ATCC25922, 32 μg/mL single dose, n=2, read-out: Growth inhibition Ec
Procedure: as §4, §1, §2

Q: For `C[N+](C)(C)CCCCCCOc1ccc(/C=C/c2ccc(/C=C/c3ccc(OCCCCCC[N+](C)(C)C)cc3)cc2)cc1` [COE-T6], which inhibition at 32 µg/mL is on record?
A: < 50%

Q: For `C[N+](C)(C)CC[N+](C)(C)CCCCCCCCOc1ccc(/C=C/c2ccc(OCCCCCCCC[N+](C)(C)CC[N+](C)(C)C)cc2)cc1` [COE-D82], which inhibition at 32 µg/mL is on record?
A: > 80%

System: Klebsiella pneumoniae MDR ATCC 700603
Assay: Single-dose growth inhibition, Kp
Type: cell-based
Conditions: ATCC700603, 32 μg/mL single dose, n=2, read-out: Growth inhibition Kp
Procedure: as §4, §1, §2

Q: With `C[N+](C)(C)CCCCCCOc1ccc(/C=C/c2ccc(/C=C/c3ccc(OCCCCCC[N+](C)(C)C)cc3)cc2)cc1` [COE-T6] as the compound, how does the inhibition at 32 µg/mL read?
A: < 50%

Q: With `C[N+](C)(C)CC[N+](C)(C)CCCCCCCCOc1ccc(/C=C/c2ccc(OCCCCCCCC[N+](C)(C)CC[N+](C)(C)C)cc2)cc1` [COE-D82] as the compound, how does the inhibition at 32 µg/mL read?
A: 50 to 80%

System: Pseudomonas aeruginosa ATCC 27853
Assay: Single-dose growth inhibition, Pa
Type: cell-based
Conditions: ATCC27853, 32 μg/mL single dose, n=2, read-out: Growth inhibition Pa
Procedure: as §4, §1, §2

Q: For `C[N+](C)(C)CCCCCCOc1ccc(/C=C/c2ccc(/C=C/c3ccc(OCCCCCC[N+](C)(C)C)cc3)cc2)cc1` [COE-T6], which inhibition at 32 µg/mL is on record?
A: < 50%

Q: With `C[N+](C)(C)CC[N+](C)(C)CCCCCCCCOc1ccc(/C=C/c2ccc(OCCCCCCCC[N+](C)(C)CC[N+](C)(C)C)cc2)cc1` [COE-D82] as the compound, how does the inhibition at 32 µg/mL read?
A: > 80%

System: E. coli K12
Assay: MIC by broth microdilution against E. coli K12
Type: cell-based
Conditions: Escherichia coli, K12; broth microdilution, MHB, 18 hrs; read-out: MIC against E. coli K12
Procedure: The respective minimum inhibition concentration (MIC) of each COE molecule was determined using a broth microdilution method. Briefly, COEs were diluted via a 2-fold dilution series in 100 μL of either Muller Hinton Broth (MHB) for E. coli and S. aureus or Brain Heart Infusion Broth (BHI) for E. faecalis in a 96-well plate to achieve the desired final concentration. Subsequently, each well was inoculated with 100 μL of 1×10^6 colony forming units (CFU) mL^−1 of the respective microorganism in MHB for E. coli or BHI for E. faecalis to achieve an inoculum density of 5×10^5 CFU mL^−1. The plates were then incubated at 37° C. with shaking (200 rpm) for 18 hrs. […] The results were obtained in triplicate.
The MIC values of COE-D4, COE-D6 and COE-D8 against the reference strain E. coli K12, pathogenic E. coli UT189, and the Gram positive pathogen Enterococcus faecalis OG1RF were determined using a broth microdilution method as described in the general method above. The MICs for E. coli K12 were determined to be 128, 16, and 4 μg mL^−1 for COE-D4, COE-D6, and COE-D8, respectively (FIG. 5a). […] This is not surprising as these two organisms differ in the capsular polysaccharides that they expressed, which are known to hinder the uptake of antimicrobials and mitigate their potency (M. A. Campos, et al., Infect. Immun. 2004, 72, 7107-7114). A K-type capsid comprising α2-8-linked sialic acid is excreted by UT189 and is known to be an important virulence factor for this organism (C. Whitfield, et al., Mol. Microbiol. 1999, 31, 1307-1319; G. G. Anderson, et al., Infect. Immun. 2010, 78, 963-975).

Q: With `C[N+](C)(C)CCCCCCOc1ccc(/C=C/c2ccc(/C=C/c3ccc(OCCCCCC[N+](C)(C)C)cc3)cc2)cc1` [COE-T6] as the compound, how does the MIC read?
A: > 16 µg/mL

Q: With `C[N+](C)(C)CC[N+](C)(C)CCCCCCCCOc1ccc(/C=C/c2ccc(OCCCCCCCC[N+](C)(C)CC[N+](C)(C)C)cc2)cc1` [COE-D82] as the compound, how does the MIC read?
A: 32 µg/mL

System: Cryptococcus neoformans var. grubii H99; ATCC 208821
Assay: Single-dose growth inhibition, Cn
Type: cell-based
Conditions: ATCC208821, 32 μg/mL single dose, n=2, read-out: Growth inhibition Cn
Procedure: as §3, §1, §2

Q: For `C[N+](C)(C)CCCCCCOc1ccc(/C=C/c2ccc(/C=C/c3ccc(OCCCCCC[N+](C)(C)C)cc3)cc2)cc1` [COE-T6], which inhibition at 32 µg/mL is on record?
A: > 80%

Q: With `C[N+](C)(C)CC[N+](C)(C)CCCCCCCCOc1ccc(/C=C/c2ccc(OCCCCCCCC[N+](C)(C)CC[N+](C)(C)C)cc2)cc1` [COE-D82] as the compound, how does the inhibition at 32 µg/mL read?
A: > 80%

System: Staphylococcus aureus MRSA ATCC 43300
Assay: Single-dose growth inhibition, Sa
Type: cell-based
Conditions: 32 μg/mL single dose, n=2, read-out: Growth inhibition Sa
Procedure: as §4, §1, §2

Q: For `C[N+](C)(C)CCCCCCOc1ccc(/C=C/c2ccc(/C=C/c3ccc(OCCCCCC[N+](C)(C)C)cc3)cc2)cc1` [COE-T6], which inhibition at 32 µg/mL is on record?
A: > 80%

Q: With `C[N+](C)(C)CC[N+](C)(C)CCCCCCCCOc1ccc(/C=C/c2ccc(OCCCCCCCC[N+](C)(C)CC[N+](C)(C)C)cc2)cc1` [COE-D82] as the compound, how does the inhibition at 32 µg/mL read?
A: > 80%
